# Values of other authors as cited in patent US20220273645A1, “NALTREXONE FORMULATION” (INTAS PHARMACEUTICALS LTD., priority 2019, published 2022).
# Assays:
# [1] = tested on: Crohn's disease; conditions: low dose; versus other standard therapy
# [2] = tested on: children with moderate to severe Crohn's disease; conditions: sole therapy in children with moderate-to-severe Crohn's disease
structure (smiles),measurement,setting,value
"O=C1CC[C@@]2(O)[C@H]3Cc4ccc(O)c5c4[C@@]2(CCN3CC2CC2)[C@H]1O5 [low dose naltrexone, (4R,4aS,7aR,12bS)-3-(cyclopropylmethyl)-4a,9-dihydroxy-2,4,5,6,7a,13-hexahydro-1H-4,12-methano benzofuro[3,2-e]isoquinoline-7-one]",safety and effectiveness for the treatment of Crohn's disease,[1],"safe, effective"
same,tolerability / serious adverse events,[2],well tolerated without any serious adverse events
